The values below come from US20150283110A1, “COMPOSITION FOR PREVENTING OR TREATING HEART DISEASE” (AMOREPACIFIC CORPORATION, priority 2012, published 2015).

In assay [1] the test system is cardiomyocytes. The assay can be described thus: Cardiomyocyte protection from cell death induced by reactive oxygen species (H2O2, MTT). Type of assay: cell-based, rat. The following applies: 250 mM H2O2 2 hours, then 5, 20 or 50 mM for 24 hours; MTT OD 540 nm; FIGS. 2 and 3. On the procedure: Cardiomyocytes isolated and cultured according to the substantially same method as described in Test Example 1 were treated with 250 mM hydrogen peroxide (H2O2) for 2 hours in a serum-free medium to induce cell death by reactive oxygen species. 2 hours later, after removing the medium and washing with PBS, the cells were treated with 5, 20 or 50 mM (+)-syringaresinol and (−)-syringaresinol for 24 hours. After adding a 3-[4,5-dimethylthiazolyl]-2,5-diphenyltetrazolium bromide (MTT, Sigma) solution to the cells and incubating at 37° C. for 4 hours, dimethyl sulfoxide was added and the optical density (OD) of the formed formazan dye was measured at a wavelength of 540 nm using an ELISA reader (Thermo Max, Molecular Devices Co.).

The subject of assay [2] is SIRT1 gene. The assay can be described thus: SIRT1 gene expression promoting effect in cardiomyocytes (RT-PCR). The assay is classed as cell-based. On the set-up: change of the expression of the SIRT1 gene: dose or concentration left out as unconfirmed. The following applies: rat cardiomyocytes, FIG. 1; for change of the expression of the SIRT1 gene: serum-free, 24 hours, DMSO control. Here is the method:
The SIRT1 gene expression promoting effect of the two optical isomers of syringaresinol in rat cardiomyocytes was evaluated as follows.
The heart of a 1-2 day old Sprague-Dawley rat was excised, immersed in an HBSS solution, cut into pieces with scissors and kept overnight in a trypsin/EDTA solution inside a shaker at 4° C. The next day, the trypsin solution was discarded and a 10% FCS/DMEM solution was added to inhibit trypsin activity. After discarding the FCS/DMEM, adding a collagenase solution and keeping in a shaking bath at 37° C. for about 3 minutes, only the supernatant was collected in a conical tube. This procedure was repeated three times. After centrifuging the collected solution at 750 rpm for 5 minutes, the resulting pellets were resuspended in a 10% FCS/DMEM solution, transferred to a culture flask and then incubated at 37° C. for 75 minutes. The suspension was transferred to a fresh culture flask, incubated again for 75 minutes, transferred to a conical tube and then plated after cell counting. The plated cells were cultured in a 10% FCS/DMEM medium for 3-4 days until confluence and the medium was treated respectively with the (+)-syringaresinol (50 mM) obtained in Example and with the (−)-syringaresinol (50 mM) obtained in Comparative Example for 24 hours after removing the serum. The control group was treated with DMSO. The treated cells were washed 2 times with cold PBS and RNA was extracted therefrom using the TRIzol reagent (Invitrogen). cDNA was synthesized from the extracted and quantitated 1 μg/μL RNA using a reverse transcription system (Promega). The expression profile of the SIRT1 and GAPDH genes was measured using the synthesized cDNA and primers and probes predesigned for the genes (Applied Biosystems; SIRT1, Hs01009006_m1; GAPDH, Hs99999905_m1). PCR reaction and analysis were conducted using the Rotor-Gene 3000 system (Corbett Research, Sydney, Australia).

The subject of assay [3] is SIRT1 gene. The experiment in a line: SIRT1 expression in vascular endothelial cells during induced aging (RT-PCR). Conditions: human vascular endothelial cells, 50 mM every other day, FIG. 8. The assay is classed as cell-based. On the procedure:
Human vascular endothelial cells purchased from Lonza (Walkersville, Md., USA) were cultured using the endothelial cell growth medium EGM-2 SingleQuots (Lonza) in a 5% CO2 incubator until 70% confluence. […] The population doubling level (PDL) was calculated according to the following equation for each generation until the cell growth was stopped. The PDL value is higher in aged cells.
14 PDL cells were treated with syringaresinol obtained from ginseng berry [syn(GB)], synthesized (+)-syringaresinol [syn(+)], 1:1 [syn(+/−1:1)], 2:1 [syn(+/−2:1)], 5:1 [syn(syn(+/−5:1))] or 10:1 [syn(syn(+/−10:1))] mixture of synthesized (+)-syringaresinol and synthesized (−)-syringaresinol or syringaresinol obtained from eleuthero [syn(eleuthero)] at a concentration of 50 mM every other day while inducing aging to 40 PDL cells. The cells of a negative control group were treated with DMSO of 1/1000 of the volume of the medium. The cells treated with each sample were washed 2 times with cold PBS and RNA was extracted using the TRIzol reagent (Invitrogen). cDNA was synthesized from the extracted RNA (1 μg/μL) using a reverse transcription system (Promega). Subsequently, the expression profile of the SIRT1 and GAPDH genes was measured using the synthesized cDNA and primers and probes predesigned for the genes (Applied Biosystems; SIRT1, Hs01009006_m1; GAPDH, Hs99999905_m1). […]

As for `COc1cc(C2OCC3C(c4cc(OC)c(O)c(OC)c4)OCC23)cc(OC)c1O` (single isomer, unassigned; (-)) [(−)-syringaresinol, reference compound], in assay [1], the “death of cardiomyocytes induced by reactive oxygen species” value is reported as “promoted cell death”. In assay [2], the “change of the expression of the SIRT1 gene” value (from here on “change”) is “cannot increase the expression of the SIRT1 gene”.
On to `COc1cc([C@H]2OC[C@H]3[C@@H]2CO[C@@H]3c2cc(OC)c(O)c(OC)c2)cc(OC)c1O` [(+)-syringaresinol, (8R,8′R)-(+)-syringaresinol], for which the “death of cardiomyocytes induced by reactive oxygen species” value in assay [1] was “suppressed the death of the cardiomyocytes induced by the reactive oxygen species in a concentration-dependent manner”. Besides, in assay [2], the “effect of increasing the SIRT1 expression compared with syringaresinol obtained from ginseng berry” value was “better effect of increasing the SIRT1 expression than the syringaresinol obtained from ginseng berry” and the “change” value is reported as “increase the SIRT1 expression in cardiomyocyte in concentration-dependent manners”. Besides, the “SIRT1 expression compared with cells treated with syringaresinol obtained from ginseng berry” value in assay [3] is “higher SIRT1 expression than the cells treated with the syringaresinol obtained from ginseng berry”. The “SIRT1 expression as compared to the cells treated only with DMSO” value in assay [3] (14 PDL to 40 PDL) is recorded as at least 4 times.
Take `COc1cc(C2OCC3C(c4cc(OC)c(O)c(OC)c4)OCC23)cc(OC)c1O` (centres unmarked) [syringaresinol obtained from ginseng berry]: the “change” value in assay [2] was “increase the SIRT1 expression in cardiomyocyte in concentration-dependent manners”.
